Assay results: patent US8354419B2, “Benzimidazole analogues for the treatment or prevention of flavivirus infections” (Vertex Pharmaceuticals Incorporated, priority 2009, dated 2013)

System: HCV (Ib) RNA replication
Experiment: Cell-based luciferase reporter HCV (1b) RNA replication assay (replicon cell lines Huh-7 5.2 and ET)
Design: species or system Hepatitis C virus
Conditions: Hepatitis C virus, Huh-7, 96 h, HCV 1b genotype replicon, luciferase readout, 4 days incubation; read-out: EC50_1b
Procedure, shortened: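 Compounds were tested at eleven concentrations in duplicate over 4 days at 37 °C, 5% CO2. The cells were luciferase-reporter HCV 1b replicon lines 5.2 (NS5A adaptive mutation) or ET (NS4B mutation). Luminescence of lysates was measured, and IC50s were derived by nonlinear curve fitting.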

CC(C)(C)CCN1CCC[C@H]1c1nc2cc(C#Cc3ccc4[nH]c([C@@H]5CCCN5CCC(C)(C)C)nc4c3)ccc2[nH]1 [Compound 134]
EC50: 5 to 5000 nM

CC(C)CCN1CCC[C@H]1c1nc2cc(C#Cc3ccc4[nH]c([C@@H]5CCCN5CCC(C)C)nc4c3)ccc2[nH]1 [Compound 135]
EC50: 5 to 5000 nM

C(#Cc1ccc2[nH]c([C@@H]3CCCN3CC3CCCCC3)nc2c1)c1ccc2[nH]c([C@@H]3CCCN3CC3CCCCC3)nc2c1 [Compound 136]
EC50: 5 to 5000 nM

CCC(C)CN1CCC[C@H]1c1nc2cc(C#Cc3ccc4[nH]c([C@@H]5CCCN5CC(C)CC)nc4c3)ccc2[nH]1 (some centres unmarked) [Compound 137]
EC50: 5 to 5000 nM

C(#Cc1ccc2[nH]c([C@@H]3CCCN3CCC3CCOCC3)nc2c1)c1ccc2[nH]c([C@@H]3CCCN3CCC3CCOCC3)nc2c1 [Compound 138]
EC50: 5 to 5000 nM

C(#Cc1ccc2[nH]c([C@@H]3CCCN3CC3CCCC3)nc2c1)c1ccc2[nH]c([C@@H]3CCCN3CC3CCCC3)nc2c1 [Compound 139]
EC50: 5 to 5000 nM

CCC(CC)CN1CCC[C@H]1c1nc2cc(C#Cc3ccc4[nH]c([C@@H]5CCCN5CC(CC)CC)nc4c3)ccc2[nH]1 [Compound 140]
EC50: 5 to 5000 nM

COC(=O)N[C@H](C(=O)N1CCC[C@H]1c1nc2cc(-c3ccc(-c4ccc5nc([C@@H]6CCCN6C(=O)[C@@H](NC(=O)OC)C(C)C)[nH]c5c4)cc3[N+](=O)[O-])ccc2[nH]1)C(C)C [Compound 141]
EC50: ≤ 5 nM

COC(=O)N[C@H](CC1CCC1)C(=O)N1CCC[C@H]1c1nc2ccc(C#Cc3ccc4nc([C@@H]5CCCN5C(=O)[C@@H](CC5CCC5)NC(=O)OC)[nH]c4c3)cc2[nH]1 [Compound 142]
EC50: ≤ 5 nM

COC(=O)N[C@H](C(=O)N1CCC[C@H]1c1nc2cc(-c3c(F)cc(-c4ccc5nc([C@@H]6CCCN6C(=O)[C@@H](NC(=O)OC)C(C)C)[nH]c5c4)cc3F)ccc2[nH]1)C(C)C [Compound 143]
EC50: ≤ 5 nM

COC(=O)N[C@H](C(=O)N1CCC[C@H]1c1nc2cc(C)c(-c3ccc(-c4cc5[nH]c([C@@H]6CCCN6C(=O)[C@@H](NC(=O)OC)C(C)C)nc5cc4C)cc3)cc2[nH]1)C(C)C [Compound 144]
EC50: ≤ 5 nM

COC(=O)N[C@H](C(=O)N1CC[C@H]1c1nc2ccc(-c3ccc(-c4ccc5nc([C@@H]6CCN6C(=O)[C@@H](NC(=O)OC)C(C)C)[nH]c5c4)cc3)cc2[nH]1)C(C)C [Compound 145]
EC50: ≤ 5 nM

COC(=O)N[C@H](C(=O)N1CCC[C@H]1c1nc2cc(-c3ccc(-c4ccc5nc([C@@H]6CCCN6C(=O)[C@@H](NC(=O)OC)C(C)C)[nH]c5c4)c4c3OCO4)ccc2[nH]1)C(C)C [Compound 146]
EC50: ≤ 5 nM

COC(=O)N[C@H](C(=O)N1CCC[C@H]1c1nc2cc(C#Cc3ccc(-c4ccc5[nH]c([C@@H]6CCCN6C(=O)[C@@H](NC(=O)OC)C(C)C)nc5c4)cc3)ccc2[nH]1)C(C)C [Compound 147]
EC50: ≤ 5 nM

COC(=O)N[C@H](C(=O)N1CCCC[C@H]1c1nc2ccc(-c3ccc(-c4ccc5nc([C@@H]6CCCCN6C(=O)[C@@H](NC(=O)OC)C(C)C)[nH]c5c4)cc3)cc2[nH]1)C(C)C [Compound 148]
EC50: ≤ 5 nM

COC(=O)N[C@H](C(=O)N1CCC[C@H]1c1nc2cc(-c3c(C)cc(-c4ccc5nc([C@@H]6CCCN6C(=O)[C@@H](NC(=O)OC)C(C)C)[nH]c5c4)cc3C)ccc2[nH]1)C(C)C [Compound 149]
EC50: ≤ 5 nM

COC(=O)N[C@H](C(=O)N1CCC[C@H]1c1nc2cc(-c3ccc(-c4ccc5[nH]c([C@@H]6CCCN6C(=O)[C@@H](NC(=O)OC)C(C)C)nc5c4)c(S(C)(=O)=O)c3)ccc2[nH]1)C(C)C [Compound 150]
EC50: ≤ 5 nM

COC(=O)NCCN1CCC[C@H]1c1nc2cc(C#Cc3ccc4[nH]c([C@@H]5CCCN5CCNC(=O)OC)nc4c3)ccc2[nH]1 [Compound 151]
EC50: 5 to 5000 nM

Cc1nc(C)c(C(=O)N2CCC[C@H]2c2nc3cc(C#Cc4ccc5nc([C@@H]6CCCN6C(=O)c6sc(C)nc6C)[nH]c5c4)ccc3[nH]2)s1 [Compound 152]
EC50: 5 to 5000 nM

CCCC/C(=C/c1ccc2[nH]c([C@@H]3CCCN3C(=O)[C@@H](NC(=O)OC)C(C)C)nc2c1)c1ccc2[nH]c([C@@H]3CCCN3C(=O)[C@@H](NC(=O)OC)C(C)C)nc2c1 [Compound 153]
EC50: ≤ 5 nM

COC(=O)N[C@H](C(=O)N1CCC[C@H]1c1nc2cc(-c3cc(C#N)c(-c4ccc5[nH]c([C@@H]6CCCN6C(=O)[C@@H](NC(=O)OC)C(C)C)nc5c4)cc3Cl)ccc2[nH]1)C(C)C [Compound 154]
EC50: ≤ 5 nM

COC(=O)N[C@H](C(=O)N1CCC[C@H]1c1nc2cc(-c3cc(C)c(-c4ccc5[nH]c([C@@H]6CCCN6C(=O)[C@@H](NC(=O)OC)C(C)C)nc5c4)s3)ccc2[nH]1)C(C)C [Compound 155]
EC50: ≤ 5 nM

Cc1cc(-c2ccc3[nH]c([C@@H]4CCCN4C(=O)[C@@H](NC(=O)O[C@H]4CCOC4)C(C)C)nc3c2)sc1-c1ccc2[nH]c([C@@H]3CCCN3C(=O)[C@@H](NC(=O)O[C@H]3CCOC3)C(C)C)nc2c1 [Compound 156]
EC50: 5 to 5000 nM

CCCCc1cc(-c2ccc3[nH]c([C@@H]4CCCN4C(=O)[C@@H](NC(=O)OC)C(C)C)nc3c2)sc1-c1ccc2[nH]c([C@@H]3CCCN3C(=O)[C@@H](NC(=O)OC)C(C)C)nc2c1 [Compound 157]
EC50: ≤ 5 nM

CCCCc1cc(-c2ccc3[nH]c([C@@H]4CCCN4C(=O)[C@@H](NC(=O)O[C@H]4CCOC4)C(C)C)nc3c2)sc1-c1ccc2[nH]c([C@@H]3CCCN3C(=O)[C@@H](NC(=O)O[C@H]3CCOC3)C(C)C)nc2c1 [Compound 158]
EC50: ≤ 5 nM

COC(=O)N[C@H](C(=O)N1CCC[C@H]1c1nc2cc(-c3csc(-c4ccc5[nH]c([C@@H]6CCCN6C(=O)[C@@H](NC(=O)OC)C(C)C)nc5c4)n3)ccc2[nH]1)C(C)C [Compound 159]
EC50: ≤ 5 nM

CC(C)[C@H](NC(=O)O[C@H]1CCOC1)C(=O)N1CCC[C@H]1c1nc2cc(-c3csc(-c4ccc5[nH]c([C@@H]6CCCN6C(=O)[C@@H](NC(=O)O[C@H]6CCOC6)C(C)C)nc5c4)n3)ccc2[nH]1 [Compound 160]
EC50: 5 to 5000 nM

COC(=O)N[C@H](C(=O)N1CCC[C@H]1c1nc2cc(-c3ccc(-c4ccc5nc([C@@H]6CCCN6C(=O)[C@@H](NC(=O)OC)C(C)C)[nH]c5c4)cc3CO)ccc2[nH]1)C(C)C [Compound 161]
EC50: ≤ 5 nM

COC(=O)N[C@@H](C(=O)N1CCC[C@H]1c1nc2cc(-c3ccc(-c4ccc5[nH]c([C@@H]6CCCN6C(=O)[C@H](NC(=O)OC)C(C)C)nc5c4)nn3)ccc2[nH]1)C(C)C [Compound 162]
EC50: ≤ 5 nM

COC(=O)N[C@H](C(=O)N1CCC[C@H]1c1nc2cc(-c3ccc(-c4ccc5[nH]c([C@@H]6CCCN6C(=O)[C@@H](NC(=O)OC)C(C)C)nc5c4)c4ncccc34)ccc2[nH]1)C(C)C [Compound 163]
EC50: ≤ 5 nM

COC(=O)N[C@H](C(=O)N1CCC[C@H]1c1nc2cc(-c3ccc(-c4ccc5nc([C@@H]6CCCN6C(=O)[C@@H](NC(=O)OC)C(C)C)[nH]c5c4)cc3NC(C)=O)ccc2[nH]1)C(C)C [Compound 164]
EC50: ≤ 5 nM

COC(=O)N[C@H](C(=O)N1C[C@H](F)C[C@H]1c1nc2cc(-c3ccc(-c4ccc5nc([C@@H]6C[C@@H](F)CN6C(=O)[C@@H](NC(=O)OC)C(C)C)[nH]c5c4)cc3)ccc2[nH]1)C(C)C [Compound 165]
EC50: ≤ 5 nM

COC(=O)N[C@H](C(=O)N1CCC[C@H]1c1nc2cc(-c3ccc(-c4ccc5nc([C@@H]6CCCN6C(=O)[C@@H](NC(=O)OC)C(C)C)[nH]c5c4)c(OC)c3OC)ccc2[nH]1)C(C)C [Compound 166]
EC50: ≤ 5 nM

COC(=O)N[C@H](C(=O)N1CCC[C@H]1c1nc2cc(-c3cc4sc(-c5ccc6nc([C@@H]7CCCN7C(=O)[C@@H](NC(=O)OC)C(C)C)[nH]c6c5)cc4s3)ccc2[nH]1)C(C)C [Compound 167]
EC50: ≤ 5 nM

COC(=O)N[C@H](C(=O)N1CCOC[C@H]1c1nc2cc(-c3ccc(-c4ccc5nc([C@@H]6COCCN6C(=O)[C@@H](NC(=O)OC)C(C)C)[nH]c5c4)cc3)ccc2[nH]1)C(C)C [Compound 168]
EC50: ≤ 5 nM

COC(=O)N[C@H](C(=O)N1C[C@@H](F)C[C@H]1c1nc2cc(-c3ccc(-c4ccc5nc([C@@H]6C[C@H](F)CN6C(=O)[C@@H](NC(=O)OC)C(C)C)[nH]c5c4)cc3)ccc2[nH]1)C(C)C [Compound 169]
EC50: ≤ 5 nM

COC(=O)N[C@H](C(=O)N1CCC[C@H]1c1nc2cc(-c3ccc(-c4ccc5[nH]c([C@@H]6CCCN6C(=O)[C@@H](NC(=O)OC)[C@@H](C)OC)nc5c4)cc3)ccc2[nH]1)[C@@H](C)OC [Compound 170]
EC50: ≤ 5 nM

COC(=O)N[C@@H](C(=O)N1CCC[C@H]1c1nc2cc(-c3ccc(-c4ccc5[nH]c([C@@H]6CCCN6C(=O)[C@H](NC(=O)OC)C(C)C)nc5c4)cc3)ccc2[nH]1)C(C)C [Compound 171]
EC50: 5 to 5000 nM

COC(=O)N[C@H](C(=O)N1CCC[C@H]1c1nc2cc(-c3ccc(-c4ccc5nc([C@@H]6CCCN6C(=O)[C@@H](NC(=O)OC)C(C)C)[nH]c5c4)c4c3OCCO4)ccc2[nH]1)C(C)C [Compound 172]
EC50: ≤ 5 nM

COC(=O)N[C@H](C(=O)N1CCC[C@H]1c1nc2cc(-c3ccc(-c4ccc5nc([C@@H]6CCCN6C(=O)[C@@H](NC(=O)OC)C(C)C)[nH]c5c4)c4ocnc34)ccc2[nH]1)C(C)C [Compound 173]
EC50: ≤ 5 nM

COC(=O)N[C@H](C(=O)N1C[C@H](OC)C[C@H]1c1nc2cc(-c3ccc(-c4ccc5[nH]c([C@@H]6C[C@@H](OC)CN6C(=O)[C@@H](NC(=O)OC)C(C)C)nc5c4)cc3)ccc2[nH]1)C(C)C [Compound 174]
EC50: ≤ 5 nM

COC(=O)N[C@H](C(=O)N1CCC[C@H]1c1nc2cc(-c3cnc(-c4ccc5[nH]c([C@@H]6CCCN6C(=O)[C@@H](NC(=O)OC)C(C)C)nc5c4)s3)ccc2[nH]1)C(C)C [Compound 176]
EC50: 5 to 5000 nM

COC(=O)N[C@H](C(=O)N1CCC[C@H]1c1nc2cc(-c3ccc(-c4ccc5nc([C@@H]6CCCN6C(=O)[C@@H](NC(=O)OC)C(C)C)[nH]c5c4)cc3C(F)(F)F)ccc2[nH]1)C(C)C [Compound 177]
EC50: ≤ 5 nM

CCOC(=O)N[C@H](C(=O)N1CCC[C@H]1c1nc2cc(-c3ccc(-c4ccc5[nH]c([C@@H]6CCCN6C(=O)[C@@H](NC(=O)OCC)C(C)C)nc5c4)cc3)ccc2[nH]1)C(C)C [Compound 178]
EC50: ≤ 5 nM
